Values quoted from earlier work, collected in article PMC6008465 (British Journal of Cancer, 2018).

Key:
phosphor-ERK levels = conditions: quoted in discussion, no reference given; read-out: IC50 for inhibition of phosphor-ERK levels; cited from earlier work
IL-8 = system: IL-8; set-up: IC50 for inhibition of spontaneous secretion of IL-8: unit not given here; conditions: quoted in discussion, no reference given, cited from earlier work

Question: For `CCNc1cc(O)c2c(c1)/C=C/C[C@H](O)[C@H](O)C(=O)/C=C\[C@@H](C)[C@H](C)OC2=O` [E6201, (3S,4R,5Z,8S,9S,11E)-14-(ethylamino)-8,9,16-trihydroxy-3,4-dimethyl-3,4,9,19-tetrahydro-1H-2-benzoxacyclotetradecine-1,7 (8H)-dione], which IC50 (phosphor-ERK levels) is on record?
Answer: 2.08 nM

Question: And the “IC50 for inhibition of spontaneous secretion of IL-8” value (IL-8)?
Answer: 8.19

Question: And the IC50 (IL-8; read-out: IC50 for inhibition of spontaneous secretion of IL-8)?
Answer: 21.8 nM
